# Test results published in patent US20210221843A1, “EPHA2 AGONISTS AND USES THEREOF” (THE REGENTS OF THE UNIVERSITY OF CALIFORNIA, priority 2018, published 2021).
# Entries after “also recorded” stand apart in the source; their conditions may differ. Starred links: 1 amine or outer side, 2 acyl side, 3 side chain; linkers in the order of their positions; H or OH if unused. Non-standard residues stand in square brackets, D forms with d. Residues, ends and D or L forms follow the SMILES beside them. *: point of attachment. Dap(4-FSB) = (S)-2-amino-3-(4-(fluorosulfonyl)benzamido)propanoic acid, O=C(NC[C@H](N[*:1])C(=O)[*:2])c1ccc(S(=O)(=O)F)cc1; 7‑MethoxyBenzofuranoic = N-terminus modified by (7-methoxybenzofuran-2-yl)-methanone, COc1cccc2cc(C(=O)*)oc12; Phenoxyacetyl(3-Cl,4-F) = O=C(COc1ccc(F)c(Cl)c1)*; Dap = NC[C@H](N)C(=O)O
# B1: ephrinA1-Fc: clustered natural ligand and used as a positive control (protein)
# chain: DRHIVFWNSSNPKFREEDYTVHVQLNDYLDIICPHYEDDSVADAAMERYTLYMVEHQEYVACQPQSKDQVRWNCNRPSAKHGPEKLSEKFQRFTPFILGKEFKEGHSYYYISKPIYHQESQCLKLKVTVNGKITHNPQAHVNPQEKRLQADDPEVQVLHSIGYS
# modifications: left off: a dimerising Fc or GST
# notes: clustered natural ligand and used as a positive control
# How the values were obtained:
# EphA2-LBD = EphA2-LBD (Homo sapiens, UniProt P29317); experiment: DELFIA displacement assay (displacement of biotinylated 123B9 from EphA2-LBD)
# Chain of EphA2-LBD (P29317 28-206 limits assumed): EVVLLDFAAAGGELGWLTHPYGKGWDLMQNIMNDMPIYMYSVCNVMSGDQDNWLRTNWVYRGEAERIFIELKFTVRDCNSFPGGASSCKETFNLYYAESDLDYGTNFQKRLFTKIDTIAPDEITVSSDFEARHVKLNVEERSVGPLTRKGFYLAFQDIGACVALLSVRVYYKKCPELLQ
# EphA2 [1] = target: T1, EphA2 (Homo sapiens, UniProt P29317); experiment: EphA2 receptor phosphorylation assay in HEK293 cells (immunoprecipitation, anti-phosphotyrosine blot); assay type: cell-based; parameters: endogenous in cells; PANC-1; conditions: various doses
# T1 sequence (P29317 24-976): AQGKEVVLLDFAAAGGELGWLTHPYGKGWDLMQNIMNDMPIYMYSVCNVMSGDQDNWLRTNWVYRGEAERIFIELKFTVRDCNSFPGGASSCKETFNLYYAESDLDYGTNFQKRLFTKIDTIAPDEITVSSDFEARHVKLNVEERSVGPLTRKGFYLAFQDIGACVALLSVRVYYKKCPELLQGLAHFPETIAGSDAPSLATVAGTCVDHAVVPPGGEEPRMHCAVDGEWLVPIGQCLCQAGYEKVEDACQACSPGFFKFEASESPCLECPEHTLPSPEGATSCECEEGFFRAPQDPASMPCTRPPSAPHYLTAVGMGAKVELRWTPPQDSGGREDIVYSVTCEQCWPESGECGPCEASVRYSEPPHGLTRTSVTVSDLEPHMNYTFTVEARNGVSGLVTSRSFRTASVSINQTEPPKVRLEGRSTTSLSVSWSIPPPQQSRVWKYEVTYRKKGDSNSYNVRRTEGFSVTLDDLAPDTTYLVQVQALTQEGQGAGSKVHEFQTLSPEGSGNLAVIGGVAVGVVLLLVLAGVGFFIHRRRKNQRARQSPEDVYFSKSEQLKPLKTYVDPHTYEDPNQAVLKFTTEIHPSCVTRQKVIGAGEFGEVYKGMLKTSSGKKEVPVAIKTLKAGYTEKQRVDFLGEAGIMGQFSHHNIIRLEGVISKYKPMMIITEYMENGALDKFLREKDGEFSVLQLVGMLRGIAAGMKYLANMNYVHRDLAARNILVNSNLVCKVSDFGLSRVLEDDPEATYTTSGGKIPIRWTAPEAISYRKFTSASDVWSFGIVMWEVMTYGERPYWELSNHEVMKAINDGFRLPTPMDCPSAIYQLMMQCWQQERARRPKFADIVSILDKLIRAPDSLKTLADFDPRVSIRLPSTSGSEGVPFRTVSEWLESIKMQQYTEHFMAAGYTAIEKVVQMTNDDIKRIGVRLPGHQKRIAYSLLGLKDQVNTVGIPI
# EphA2 [2] = target: T1, EphA2; experiment: Western blot of total EphA2 and pEphA2 S897 in BxPC3 cells; assay type: cell-based; parameters: endogenous in cells; host or cells: BxPC3; PANC-1; conditions: 3 hours treatment
# BxPC3 cells [3] = experiment: Time-lapse scratch wound cell-migration assay; assay type: cell-based; conditions: 2.5 μM
# Description: Cell-migration assay: Cells were cultured in 96-well ImageLock plates (Sartorius). Next day, wells were scratched using the WoundMaker (Sartorius). Subsequently, cells were washed twice with PBS and treated with the indicated compounds in RPMI-1640 complete media. Subsequently, cells were imaged every 6 h using IncuCyte S3 (Sartorius) and relative wound areas were analyzed using the algorithm of the imager cell migration software module.
# BxPC3 cells [4] = experiment: Time-lapse scratch wound cell invasion assay (Matrigel); assay type: cell-based; conditions: scratch wound through Matrigel, 2.5 μM
# Description: Cell invasion assay: Matrigel (Corning) was diluted in serum-free RPMI-1640 media (1:100), 50 µL of the mixture was added to ImageLock plate and incubated at 37° C. for 2 h. Next, excess media were aspirated and cells in complete media were plated and left overnight in humidified cell culture incubator. The following day, cell culture plate was aspirated, scratched with the WoundMaker, and washed twice with PBS. Subsequently, the plate was coated with a mixture of Matrigel and cold serum-free RPMI-1640 (1:1) and left in the incubator to solidify for 30 min. Finally, 100 µL of 1.5× compound-media mixture was added to the plate at various concentrations. The healing of the scratches was imaged and calculated similar to the migration assay.
# EphA2 [5] = target: T1, EphA2; experiment: Western blot of total EphA2 and pEphA2 S897 in PANC-1 cells; assay type: cell-based; parameters: endogenous in cells; host or cells: PANC-1
# EphA2 [6] = target: T1, EphA2; experiment: Immunofluorescence of EphA2 cellular localization in BxPC3 cells; assay type: cell-based; parameters: endogenous in cells; host or cells: BxPC3; PANC-1; conditions: 30 min treatment, 1 μM 135H12
# Description: FIG. 4A-D. Dimeric EphA2 agonists degrade EphA2 receptors in cancer cells. […] BxPC3 cell line was treated with the indicated doses for 3 hours, then cells were lysed and Western blot studies were performed. […] BxPC3 or PANC-1 cells were treated and lysed similar to the previous Western blot. […] EphrinA1-Fc is a clustered natural ligand and used as a positive control. […] Moreover, the receptor band disappeared after 1 hour of treatment. […] Cells were immunostained with EphA2 antibody (light) and nuclei were counterstained with DAPI (dark). […] Images were acquired using confocal Inverted Zeiss 880.
# In chamber slides, cells were plated and allowed to adhere overnight in humidified cell culture incubators. The following day, cells were treated with the indicated ligands for 30 min. Subsequently, cells were washed with PBS and fixed with 4% Formaldehyde (Polysciences, Inc.), then blocked and permeabilized with 5% FBS and 0.3% Triton™ X-100 for 1 h. Next, wells were washed and stained with anti-EphA2 antibody, followed by three washes and further incubation with Alexafluor goat anti-mouse 488 secondary antibody (ThermoFisher). Cells were counterstained with DAPI and mounted with Prolong Diamond Antifade (ThermoFisher). Images were acquired with confocal microscope Zeiss 880 Airyscan and processed using Adobe Photoshop CC.
# EphA2 [7] = target: T1, EphA2; experiment: Covalent gel shift with EphA2; assay type: biochemical; conditions: compounds incubated 10:1 for 2 hours at room temperature
# Description: Covalent adduct formation of EphA2 with 147A5 and 147A6, respectively, were confirmed by covalent gel shift. Compounds were incubated 10:1 for 2 hours at room temperature.
molecule,measurement,setting,value
"CC(C)[C@H](NC(=O)[C@H](CC(=O)O)NC(=O)[C@H](CC(=O)O)NC(=O)[C@@H]1CCCN1C(=O)[C@H](Cc1ccc(O)cc1)NC(=O)[C@H](C)NC(=O)[C@H](CN)NC(=O)COc1ccc(F)c(Cl)c1)C(=O)N1CCC[C@H]1C(=O)N[C@@H](Cc1ccccc1)C(=O)N[C@@H](CCCNC(=N)N)C(=O)N1CCC[C@H]1C(N)=O [135F11] ({Phenoxyacetyl(3-Cl,4-F)}-[Dap]AYPDDVPFRP-NH2)",IC50,EphA2-LBD,> 200 µM
"CC(C)[C@H](NC(=O)[C@H](CO)NC(=O)[C@H](CC(=O)O)NC(=O)[C@@H]1CCCN1C(=O)[C@H](Cc1ccc(O)cc1)NC(=O)[C@H](C)NC(=O)[C@H](CO)NC(=O)COc1ccc(F)c(Cl)c1)C(=O)N1C[C@H](O)C[C@H]1C(=O)N[C@@H](Cc1ccc(Cl)cc1)C(=O)N[C@@H](CCCNC(=N)N)C(=O)N1CCC[C@H]1C(N)=O [135G3, (4F,3ClPhOCH2CO)SAYPDSV(Hyp)(4ClPhe)RP-CONH2]",induction of EphA2 receptor phosphorylation,EphA2 [1],remarkably increased cellular activity in inducing tyrosine receptor phosphorylation compared to YSA
"CC(C)[C@H](NC(=O)[C@H](CO)NC(=O)[C@H](CC(=O)O)NC(=O)[C@@H]1CCCN1C(=O)[C@H](Cc1ccc(O)cc1)NC(=O)[C@H](C)NC(=O)[C@H](CO)NC(=O)COc1ccc(F)c(Cl)c1)C(=O)N1C[C@H](O)C[C@H]1C(=O)N[C@@H](Cc1ccc(Cl)cc1)C(=O)N[C@@H](CCCNC(=N)N)C(=O)N1CCC[C@H]1C(=O)NCC(=O)NCCCC[C@H](NC(=O)CNC(=O)[C@@H]1CCCN1C(=O)[C@H](CCCNC(=N)N)NC(=O)[C@H](Cc1ccc(Cl)cc1)NC(=O)[C@@H]1C[C@@H](O)CN1C(=O)[C@@H](NC(=O)[C@H](CO)NC(=O)[C@H](CC(=O)O)NC(=O)[C@@H]1CCCN1C(=O)[C@H](Cc1ccc(O)cc1)NC(=O)[C@H](C)NC(=O)[C@H](CO)NC(=O)COc1ccc(F)c(Cl)c1)C(C)C)C(N)=O [135G4, [(4F,3ClPhOCH2CO)SAYPDSV(HYP)(4ClPhe)RPG]2-K-CONH2]",degradation of total EphA2 and dephosphorylation of pEphA2 S897,EphA2 [2],degraded total EphA2 receptor and phosphorylated pEphA2 S897 at nanomolar concentrations; also recorded: remarkably active in inducing receptor degradation and dephosphorylation of Ser897-EphA2 at sub-micromolar concentrations
"COc1ccc(C[C@H](NC(=O)[C@H](C)NC(=O)[C@H](CC(C)C)NC(=O)c2oc3c(OC)c(OC)ccc3c2C)C(=O)N2CCC[C@H]2C(=O)N[C@@H](CC(=O)O)C(=O)N[C@@H](C)C(=O)N[C@H](C(=O)N2C[C@H](O)C[C@H]2C(=O)N[C@@H](Cc2ccc(Cl)cc2)C(=O)N[C@@H](CCCNC(=N)N)C(=O)N2CCC[C@H]2C(N)=O)C(C)C)cc1 [135H11, XLA(4MeTyr)PDAV(Hyp)(4ClPhe)RP-CONH2]",inhibition of cell migration,BxPC3 cells [3],inhibit cell migration
same,inhibition of cell invasion,BxPC3 cells [4],inhibited cell invasion; also recorded: equally effective in suppressing cell invasion at low micromolar concentration
same,degradation of total EphA2 and dephosphorylation of pEphA2 S897,EphA2 [5],more effective than the monomer 123B9; also recorded: orders of magnitude more effective than 123B9 in causing EphA2 degradation and suppressing oncogenic pSer897-EphA2
same,degradation of total EphA2 and dephosphorylation of pEphA2 S897,EphA2 [2],more effective than the monomer 123B9; also recorded: orders of magnitude more effective than 123B9 in causing EphA2 degradation and suppressing oncogenic pSer897-EphA2
same,EphA2 cellular localization,EphA2 [6],located at the cell membrane; also recorded: fluorescence localized at the cell membrane
(7-MethoxyBenzofuranoic)LAYPDAVP-Dap(3-FSB)-RP-CONH2 ({7‑MethoxyBenzofuranoic}-LAYPDAVP[Dap(3-FSB)]RP-NH2) [147A6],covalent adduct formation with EphA2,EphA2 [7],confirmed
(7-MethoxyBenzofuranoic)LAYPDAVP-Dap(4-FSB)-RP-CONH2 ({7‑MethoxyBenzofuranoic}-LAYPDAVP[Dap(4-FSB)]RP-NH2; SMILES COc1cccc2cc(C(=O)N[C@@H](CC(C)C)C(=O)N[C@@H](C)C(=O)N[C@@H](Cc3ccc(O)cc3)C(=O)N3CCC[C@H]3C(=O)N[C@@H](CC(=O)O)C(=O)N[C@@H](C)C(=O)N[C@H](C(=O)N3CCC[C@H]3C(=O)N[C@@H](CNC(=O)c3ccc(S(=O)(=O)F)cc3)C(=O)N[C@@H](CCCNC(=N)N)C(=O)N3CCC[C@H]3C(N)=O)C(C)C)oc12) [147A5],covalent adduct formation with EphA2,EphA2 [7],confirmed
B1,EphA2 cellular localization,EphA2 [6],punctuated fluorescence was observed in the cytoplasm
